Reference: US4503236A, “Antiallergic 4Hfuro[3,2-b]indoles” (Warner-Lambert Company, priority 1983, dated 1985)

Each molecule was assayed on Trachea and lungs (ovalbumin-sensitized guinea pig tissue, antigen challenge) (assay: modified Shultz-Dale procedure: inhibition of antigen-induced contraction of isolated trachea and lung from ovalbumin-immunized guinea pigs). Details: 3 × 10^-5 M; isolated guinea pig tissue (trachea/lung not distinguished), antigen challenge 10 min after drug.
Type: cell-based
Protocol: The compounds of the invention display antiallergic properties when tested by the following procedure [modification of Shultz-Dale procedure, Agents and Actions, 8, 171 (1978)]: Guinea pigs, after one week environmental stabilization, are immunized IP with 1 mg crude ovalbumin (OA) in 1 ml saline with 50% complete Freund's Adjuvant (CFA). Twenty-one days later animals are killed by a blow to the head. Trachea and lungs are removed and placed in Tyrode's solution, pH 7.4, aerated with 5% CO2 in O2.
Trachea: Connective and vascular tissue are removed and a wooden stick is inserted in the lumen. One end of the trachea is fixed with a pin. The stick is held against a surgical blade and rotated in a helical manner. Spirals formed are cut into two lengths, each containing two or more bands of transverse strips of tracheal muscle. The tissue is attached to transducers and maintained at 5 g tension. Sensitivity of the preamplifier is 2.0 mv/cm and of the amplifier, 0.02 mv/cm, with calibration of 20 mg force displacement per mm. After 45 minutes equilibration, the tissue is challenged with antigen.
Lung: The heart and lung are removed as a unit and the lung is perfused with buffer by the spontaneously beating heart for several minutes. Distal strips of lung from the diaphragmatic lobe approximately 0.3 cm wide and 3 cm long are removed and attached to transducers. Preload is 0.3 g of tension with sensitivity at 0.02 mv/cm on the amplifier and 0.5 mv/cm on the preamp and calibration of 1 mm=5 mg force displacement.
Test Design for Evaluation of Drugs: All tissues are challenged repetitively with the same concentration of antigen. After each concentration, the tissue is washed and allowed to stabilize. The original baseline tension is reestablished before the next challenge. Control contractions in lung must develop a minimum of 10 mg and in trachea, a minimum of 40 mg tension above baseline. When the contractions are reproducible, drug is introduced. Drug effects of baseline are monitored. Ten minutes later, after readjustment to baseline tension as indicated by consecutive reading one minute apart, tissue is again challenged with antigen. The concentration is monitored for at least 15 minutes and the tissue is washed free of antigen and drug. […] Tissues are not used again. If inhibition takes place, a final antigen challenge is repeated to establish that the tissue is reactive to antigen.

With CCOc1c(C(=O)Nc2nnn[nH]2)oc2c3ccccc3n(-c3ccccc3)c12 [H, C6 H5, C2 H5,, 3-Ethoxy-4-phenyl-N(1H-tetrazol-5-yl)-4H-furo[3,2-b]-indole-2-carboxamide] the “% Inhibition” value was 100%.

Same assay, conditions: Cavia porcellus, 10 min; 3 × 10^-5 M; isolated guinea pig tissue (trachea/lung not distinguished), antigen challenge 10 min after drug

In order of rising inhibition at 30 µM:
1. COc1c(-c2nnn[nH]2)oc2c3ccccc3n(C)c12 [H, CH3, CH3,, 3-Methoxy-4-methyl-2-(1H-tetrazol-5-yl)-4H-furo[3,2-b]indole]  26%
2. COc1c(C(=O)Nc2nnn[nH]2)oc2c3ccccc3n(C)c12 [H, CH3, CH3,, 3-Methoxy-4-methyl-N-(1H-tetrazol-5-yl)-4H-furo[3,2-b]indole-2-carboxamide]  38%
3. CCOc1c(C(=O)O)oc2c3cc(OC)ccc3n(-c3ccccc3)c12 [CH3 O, C6 H5, C2 H5, COOH, 3-Ethoxy-7-methoxy-4-phenyl-4H-furo[3,2-b]indole-2-carboxylic acid]  100%
4. CCOc1c(C(=O)Nc2nnn[nH]2)oc2c3cc(OC)ccc3n(-c3ccccc3)c12 [CH3 O, C6 H5, C2 H5,, 3-Ethoxy-7-methoxy-4-phenyl-N-(1H-tetrazol-5-yl)-4H-furo[3,2-b]indole-2-carboxamide]  100%
5. COc1ccc2c(c1)c1oc(C(=O)O)c(OC)c1n2-c1ccccc1 [CH3 O, C6 H5, CH3, COOH, 3,7-Dimethoxy-4-phenyl-4H-furo[3,2-b]indole-2-carboxylic acid]  100%
6. COc1ccc2c(c1)c1oc(-c3nnn[nH]3)c(OC)c1n2-c1ccccc1 [CH3 O, C6 H5, CH3,, 3,7-Dimethoxy-4-phenyl-2-(1H-tetrazol-5-yl)-4H-furo[3,2-b]indole]  100%
7. COc1ccc2c(c1)c1oc(C(=O)Nc3nnn[nH]3)c(OC)c1n2-c1ccccc1 [CH3 O, C6 H5, CH3,, 3,7-Dimethoxy-4-phenyl-N-(1H-tetrazol-5-yl)-4H-furo[3,2-b]indole-2-carboxamide]  100%
8. CCOc1c(C(=O)O)oc2c3ccccc3n(-c3ccccc3)c12 [H, C6 H5, C2 H5, COOH, 3-Ethoxy-4-phenyl-4H-furo[3,2-b]indole-2-carboxylic acid]  100%
9. CCOc1c(-c2nnn[nH]2)oc2c3ccccc3n(-c3ccccc3)c12 [H, C6 H5, C2 H5,, 3-Ethoxy-4-phenyl-2(1H-tetrazol-5-yl)-4H-furo[3,2-b]indole]  100%
10. COc1c(C(=O)O)oc2c3ccccc3n(-c3ccccc3)c12 [H, C6 H5, CH3, COOH, 3-Methoxy-4-phenyl-4H-furo[3,2-b]indole-2-carboxylic acid]  100%
11. COc1c(C(=O)Nc2nnn[nH]2)oc2c3ccccc3n(-c3ccccc3)c12 [H, C6 H5, CH3,, 3-Methoxy-4-phenyl-N-(1H-tetrazol-5-yl)-4H-furo[3,2-b]indole-2-carboxamide]  100%
